This note sets out measurements from patent publication US8053603B2, “Tetralone-based monoamine reuptake inhibitors” (Sunovion Pharmaceuticals Inc., priority 2006, dated 2011).

Like-named read-outs stand apart in the source and are kept apart here.

For assay [1], the target named is T1, recombinant human dopamine transporter (Homo sapiens, UniProt Q01959).
T1 construct: expressed in transfected cells; host or cells: CHO-K1 or HEK293
Nature of the assay: Dopamine functional uptake assay for human reuptake transporter. In kind it is cell-based. As for the experimental part: Dopamine Functional Uptake Assay for Human Reuptake Transporter
Either CHO-K1 or HEK293 cells expressing human recombinant dopamine transporter were plated before the assay. Test compound and/or vehicle was preincubated with cells in modified HEPES buffer pH 7.1 or pH 7.4 for 20 minutes at 18 to 25° C. and 50 nM [^3H]dopamine was then added for an additional timed incubation period (10 to 30 minutes). After washing the cells to remove [^3H]dopamine not internalized, the cells were lysed, and the amount of tritium in the lysate was measured using a liquid scintillation counter to determine [^3H]dopamine uptake. Non-specific binding of tritium was measured in a control reaction containing 10 μM nomifensine, and was subtracted from the counts for assays to correct for non-specific binding of tritium. Reduction of [^3H]dopamine uptake by 50 percent or more (≧50%) relative to an uninhibited control reaction indicates significant inhibitory activity.

Assay [2] has as its target T2, recombinant human norepinephrine transporter (Homo sapiens, UniProt P23975).
T2 construct: expressed in transfected cells; host or cells: HEK293 or MDCK
Nature of the assay: Norepinephrine functional uptake assay for human reuptake transporter. Format: cell-based. Conditions: [3H]norepinephrine uptake, HEK293 or MDCK cells expressing human norepinephrine transporter. As for the experimental part:
Norepinephrine Functional Uptake Assay for Human Reuptake Transporter
The cells were plated before the assay. Test compound and/or vehicle was preincubated with cells in modified HEPES buffer pH 7.1 or pH 7.4 for 20 minutes at 18 to 25° C. . […] After the cells were washed to remove [^3H]norepinephrine not internalized, the cells were lysed, and the amount of tritium in the cell lysate was measured using a liquid scintillation counter to determine [^3H]norepinephrine uptake. Non-specific binding of tritium was measured in a control reaction containing 10 μM imipramine (or 10 μM nisoxetine), and was subtracted from the counts for assays to correct for non-specific binding of tritium. Reduction of [^3H]norepinephrine uptake by 50 percent or more (≧50%) relative to an uninhibited control reaction indicates significant inhibitory activity.

The mark [3] stands for this setting: [3H]dopamine uptake, CHO-K1 or HEK293 cells expressing human dopamine transporter, read-out: Human IC50 (nM) DAT.

T1 sequence (Q01959 whole entry): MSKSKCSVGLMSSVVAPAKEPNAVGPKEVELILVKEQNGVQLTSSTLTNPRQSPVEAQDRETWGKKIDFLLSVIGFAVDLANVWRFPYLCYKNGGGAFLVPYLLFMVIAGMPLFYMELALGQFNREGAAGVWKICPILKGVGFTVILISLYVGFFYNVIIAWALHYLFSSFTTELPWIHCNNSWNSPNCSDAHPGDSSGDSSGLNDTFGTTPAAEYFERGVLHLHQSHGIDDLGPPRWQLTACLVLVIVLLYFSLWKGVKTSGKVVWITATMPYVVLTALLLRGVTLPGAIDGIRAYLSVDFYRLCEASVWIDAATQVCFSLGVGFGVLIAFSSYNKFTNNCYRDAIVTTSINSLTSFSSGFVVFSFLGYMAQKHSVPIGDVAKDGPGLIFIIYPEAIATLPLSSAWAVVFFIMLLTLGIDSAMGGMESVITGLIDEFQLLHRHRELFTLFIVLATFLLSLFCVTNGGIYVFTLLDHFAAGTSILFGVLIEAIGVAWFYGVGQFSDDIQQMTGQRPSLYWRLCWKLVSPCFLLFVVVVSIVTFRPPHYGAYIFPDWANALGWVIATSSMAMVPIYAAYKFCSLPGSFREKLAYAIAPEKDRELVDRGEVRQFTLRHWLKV
T2 sequence (P23975 whole entry): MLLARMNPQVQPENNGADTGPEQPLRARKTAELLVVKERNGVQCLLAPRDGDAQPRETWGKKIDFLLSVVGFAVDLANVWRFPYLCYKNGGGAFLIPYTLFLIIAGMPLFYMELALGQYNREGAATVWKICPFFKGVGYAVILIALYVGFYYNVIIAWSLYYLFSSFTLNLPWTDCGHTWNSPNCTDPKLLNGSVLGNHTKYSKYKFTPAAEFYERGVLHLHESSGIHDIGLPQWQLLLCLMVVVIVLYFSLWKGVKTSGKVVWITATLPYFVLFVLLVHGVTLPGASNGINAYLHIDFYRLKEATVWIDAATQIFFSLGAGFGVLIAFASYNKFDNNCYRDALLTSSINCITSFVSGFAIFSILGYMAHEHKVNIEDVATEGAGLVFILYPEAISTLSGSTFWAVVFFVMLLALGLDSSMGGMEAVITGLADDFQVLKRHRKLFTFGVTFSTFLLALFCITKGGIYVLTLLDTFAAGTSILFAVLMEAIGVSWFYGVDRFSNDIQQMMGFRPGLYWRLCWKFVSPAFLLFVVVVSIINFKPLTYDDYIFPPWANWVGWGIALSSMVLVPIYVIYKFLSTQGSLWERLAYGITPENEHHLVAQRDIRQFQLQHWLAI

Take `CN[C@H]1Cc2ccccc2[C@H](c2ccc(Cl)c(Cl)c2)C1` (single isomer, unassigned) [Compound 7b, 4-(3,4-dichlorophenyl)-N-methyl-1,2,3,4-tetrahydronaphthalen-2-amine]: the IC50 (as a rule, the concentration at which inhibition is half-maximal) in assay [1] (setting [3]) turned out to be 62 nM.

`CN[C@H]1CCc2ccccc2[C@H]1c1ccc(Cl)c(Cl)c1` (single isomer, unassigned) [Compound 36c, 1-(3,4-dichlorophenyl)-N-methyl-1,2,3,4-tetrahydronaphthalen-2-amine]: the values for the IC50 in assay [1] (setting [3]) and in assay [2] (read-out: Human IC50 (nM) NET) were 88 nM and 745 nM, respectively.

For the compound `CNC[C@H]1Cc2ccccc2[C@H](c2ccc(Cl)c(Cl)c2)C1` (single isomer, unassigned) [Compound 15c, [4-(3,4-dichlorophenyl)-1,2,3,4-tetrahydro-naphthalen-2-ylmethyl]-methylamine], the IC50 in assay [1] (setting [3]) amounted to 111 nM; in assay [2] (Human IC50 (nM) NET), 210 nM.

Turning to `CN(C)[C@H]1Cc2ccccc2[C@H](c2ccc(Cl)c(Cl)c2)C1` (single isomer, unassigned) [Compound 8c, [4-(3,4-dichlorophenyl)-1,2,3,4-tetrahydro-naphthalen-2-yl]-dimethylamine], the IC50 was determined as 273 nM in assay [1] (setting [3]) and 164 nM in assay [2] (Human IC50 (nM) NET).

`CNC[C@H]1Cc2ccccc2[C@H](c2ccc(Cl)c(Cl)c2)C1` (single isomer, unassigned) [Compound 15b, [4-(3,4-dichlorophenyl)-1,2,3,4-tetrahydro-naphthalen-2-ylmethyl]-methylamine]: the IC50 in assay [1] (setting [3]) came to 103 nM; in assay [2] (Human IC50 (nM) NET), 126 nM.

`CN[C@H]1Cc2ccccc2[C@H](c2ccc(Cl)c(Cl)c2)C1` (single isomer, unassigned) [Compound 7d, 4-(3,4-dichlorophenyl)-N-methyl-1,2,3,4-tetrahydronaphthalen-2-amine]: the 50% inhibitory concentration (IC50) in assay [1] (setting [3]) was 72 nM.

For `CNC[C@H]1Cc2ccccc2[C@H](c2ccc(Cl)c(Cl)c2)C1` (single isomer, unassigned) [Compound 15d, [4-(3,4-dichlorophenyl)-1,2,3,4-tetrahydro-naphthalen-2-ylmethyl]-methylamine], the IC50 is 484 nM in assay [1] (setting [3]) and 372 nM in assay [2] (Human IC50 (nM) NET).

Regarding `CN[C@H]1Cc2ccccc2[C@H](c2ccc(Cl)c(Cl)c2)C1` (single isomer, unassigned) [Compound 7c, 4-(3,4-dichlorophenyl)-N-methyl-1,2,3,4-tetrahydronaphthalen-2-amine], the IC50 in assay [1] (setting [3]) turned out to be 281 nM.

Turning to `N[C@H]1Cc2ccccc2[C@H](c2ccc(Cl)c(Cl)c2)C1` (single isomer, unassigned) [Compound 6d, [4-(3,4-dichlorophenyl)-1,2,3,4-tetrahydro-naphthalen-2-yl]-amine], the IC50 in assay [1] (Human IC50 (nM) DAT) stood at 175 nM; in assay [2] (Human IC50 (nM) NET), 174 nM.

`N[C@H]1Cc2ccccc2[C@H](c2ccc(Cl)c(Cl)c2)C1` [Compound 6a, [4-(3,4-dichlorophenyl)-1,2,3,4-tetrahydro-naphthalen-2-yl]-amine]: the IC50 in assay [1] (read-out: Human IC50 (nM) DAT) came to 350 nM; in assay [2] (read-out: Human IC50 (nM) NET), 124 nM.

As to `CN(C)CC1Cc2ccccc2C(c2ccc(Cl)c(Cl)c2)C1` (single isomer, unassigned) [Compound 16b, [4-(3,4-dichlorophenyl)-1,2,3,4-tetrahydro-naphthalen-2-ylmethyl]-dimethylamine], the IC50 in assay [2] (Human IC50 (nM) NET) came to 309 nM.

On to `CN[C@H]1Cc2ccccc2[C@H](c2ccc(Cl)c(Cl)c2)C1` [Compound 7a, 4-(3,4-dichlorophenyl)-N-methyl-1,2,3,4-tetrahydronaphthalen-2-amine], for which the IC50 in assay [1] (setting [3]) turned out to be 114 nM.

Consider `CN(C)CC1Cc2ccccc2C(c2ccc(Cl)c(Cl)c2)C1` (single isomer, unassigned) [Compound 16a, [4-(3,4-dichlorophenyl)-1,2,3,4-tetrahydro-naphthalen-2-ylmethyl]-dimethylamine], for which the IC50 in assay [2] (Human IC50 (nM) NET) is 565 nM.

As to `CN[C@H]1CCc2ccccc2[C@H]1c1ccc(Cl)c(Cl)c1` (single isomer, unassigned) [Compound 36b, 1-(3,4-dichlorophenyl)-N-methyl-1,2,3,4-tetrahydronaphthalen-2-amine], the IC50 in assay [2] (read-out: Human IC50 (nM) NET) was 7090 nM.
